Test results taken from patent US6849732B2, “Metalloproteinase inhibitors, pharmaceutical compositions containing them and their pharmaceutical uses, and methods and intermediates useful for their preparation” (Agouron Pharmaceuticals, Inc., priority 1995, dated 2005).
Structures can show the parent of a compound that is named as a salt. Where two headings read alike, the source gives them in different places.

How the values were obtained:
Assay type in all cases: biochemical
stromelysin (HSLN) = stromelysin (HSLN) (Homo sapiens, UniProt P08254); experiment: MCA fluorogenic enzyme assay, competitive inhibition analysis (Ki,app), stromelysin
matrilysin (Matr.) = target: T1, matrilysin (Matr.) (Homo sapiens, UniProt P09237); experiment: MCA fluorogenic enzyme assay, competitive inhibition analysis (Ki,app), matrilysin; conditions: MCA peptide substrate, 37° C., pH 7.5, read-out: Enzyme Inhibition Constants (K1) Matr.
T1 sequence (P09237 95-267): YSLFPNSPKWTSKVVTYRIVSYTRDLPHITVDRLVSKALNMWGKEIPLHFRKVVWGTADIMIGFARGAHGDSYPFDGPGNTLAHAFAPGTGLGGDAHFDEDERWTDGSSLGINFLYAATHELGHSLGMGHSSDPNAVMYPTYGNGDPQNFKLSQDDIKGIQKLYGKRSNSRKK
Method: Stromelysin enzymatic activity was measured using a modified version of a resonance energy transfer fluorogenic assay as described in FEBS, vol. 296(3), p. 263 (1992), the disclosure of which is incorporated herein by reference. The MCA-peptide substrate is shown below. The fluorescent MCA group is quenched by resonance energy transfer to the 2,4-dinitrophenyl group. Matrix metalloproteinases cleave this substrate at the Gly-Leu bond. Cleavage results in the loss of energy transfer and a large increase in fluorescence of the MCA group. [drawing 56] 7-methoxycoumarin-4-yl-acetyl-pro-leu-gly-leu-3-(2,4-dinitrophenyl)-L-2,3-diaminoproprionyl-ala-arg-NH2
The MCA assay was performed at 37° C. in buffer containing 50 mM Tricine (pH 7.5), 10 mM CaCl2, 200 mM NaCl, and 1% DMSO with the following concentrations of matrix metalloproteinases: 1.4 nM stromelyin, 0.063 nM matrilysin, and 0.030 nM gelatinase A. The concentration of MCA substrate was 10 or 20 μM in a final volume of 1.6 mL. Fluorescence data was collected with Perkin-Elmer LS-5B and LS-5B spectrofluorimeters with λexcitation=328 nm and λemission=393 nm. Spectrofluorimeters were interfaced with IBM-compatible microcomputer systems.
The Km for the MCA peptide substrate with the matrix metalloproteinases is quite high and exceeds its solubility under assay conditions. Consequently, the apparent Ki (Ki,app) was determined to describe the strength of inhibition. However, in this case, Ki,app would be essentially equal to Ki since [S]<<Km. For the determination of Ki,app, the concentration of the inhibitor was varied at a constant and low concentration of substrate and the steady-state rates of fluorescence change determined. In most cases absorptive quench due to the presence of ligand was not observed. For slow-binding inhibitors, onset of inhibition curves were collected for at least 45 minutes so that equilibrium was established. Steady-state rates of fluorescence change were obtained by fitting a curve to an equation for a single exponential decay containing a linear phase. The fitted value of the linear phase was taken as the steady-state rate. The steady-state rates were fitted to the Michaelis equation describing competitive inhibition by non-linear methods. Data resulting from tight-binding inhibition was analyzed, and Ki,app determined by fitting the data to the tight-binding equation of Morrison See (Biochem. Biophys. Acta, vol. 185, pp. 269-286 (1969)) by non-linear methods.

HFC = target: T2, HFC (Homo sapiens, UniProt P03956); experiment: MCA fluorogenic enzyme assay, competitive inhibition analysis (Ki,app), HFC; conditions: MCA peptide substrate, 37° C., pH 7.5, read-out: Enzyme Inhibition Constants (K1) HFC
T2 sequence (P03956 100-469): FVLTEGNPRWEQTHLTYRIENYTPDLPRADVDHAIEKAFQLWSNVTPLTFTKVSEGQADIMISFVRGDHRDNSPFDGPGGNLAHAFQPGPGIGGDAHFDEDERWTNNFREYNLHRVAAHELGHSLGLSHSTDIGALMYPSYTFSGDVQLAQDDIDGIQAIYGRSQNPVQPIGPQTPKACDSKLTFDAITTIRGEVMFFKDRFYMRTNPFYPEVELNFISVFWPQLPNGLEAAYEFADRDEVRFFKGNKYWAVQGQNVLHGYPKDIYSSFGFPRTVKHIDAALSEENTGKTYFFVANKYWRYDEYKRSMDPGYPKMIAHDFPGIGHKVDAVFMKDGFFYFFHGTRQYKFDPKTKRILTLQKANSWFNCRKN

gelatinase A (HG72kD) = target: T3, gelatinase A (HG72kD) (Homo sapiens, UniProt P08253); experiment: MCA fluorogenic enzyme assay, competitive inhibition analysis (Ki,app), gelatinase A; conditions: MCA peptide substrate, 37° C., pH 7.5, read-out: Enzyme Inhibition Constants (K1) HG72kD
T3 sequence (P08253 110-660): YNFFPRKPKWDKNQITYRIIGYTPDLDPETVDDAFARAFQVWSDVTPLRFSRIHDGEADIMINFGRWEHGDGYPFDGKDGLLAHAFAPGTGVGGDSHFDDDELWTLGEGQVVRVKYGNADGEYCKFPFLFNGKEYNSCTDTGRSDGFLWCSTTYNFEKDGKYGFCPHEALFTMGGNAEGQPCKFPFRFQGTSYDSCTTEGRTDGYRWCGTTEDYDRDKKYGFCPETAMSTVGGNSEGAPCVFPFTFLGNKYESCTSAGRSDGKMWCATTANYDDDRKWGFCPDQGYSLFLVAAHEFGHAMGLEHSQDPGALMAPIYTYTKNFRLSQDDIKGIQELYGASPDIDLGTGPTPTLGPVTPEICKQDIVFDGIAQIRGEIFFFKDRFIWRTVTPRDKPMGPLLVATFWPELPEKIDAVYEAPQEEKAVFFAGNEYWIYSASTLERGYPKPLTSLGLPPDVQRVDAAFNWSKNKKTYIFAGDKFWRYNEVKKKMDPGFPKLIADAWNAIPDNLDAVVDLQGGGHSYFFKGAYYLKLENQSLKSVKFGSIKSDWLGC

Coll3 = Coll3 (Homo sapiens, UniProt P45452); experiment: MCA fluorogenic enzyme assay, competitive inhibition analysis (Ki,app), Coll3; conditions: MCA peptide substrate, 37° C., pH 7.5, read-out: Enzyme Inhibition Constants (K1) Coll3
[1] = Ki,app, MCA peptide substrate, 37° C., pH 7.5, read-out: Enzyme Inhibition Constants (K1) HSLN

Chain of stromelysin (HSLN) (P08254 100-477): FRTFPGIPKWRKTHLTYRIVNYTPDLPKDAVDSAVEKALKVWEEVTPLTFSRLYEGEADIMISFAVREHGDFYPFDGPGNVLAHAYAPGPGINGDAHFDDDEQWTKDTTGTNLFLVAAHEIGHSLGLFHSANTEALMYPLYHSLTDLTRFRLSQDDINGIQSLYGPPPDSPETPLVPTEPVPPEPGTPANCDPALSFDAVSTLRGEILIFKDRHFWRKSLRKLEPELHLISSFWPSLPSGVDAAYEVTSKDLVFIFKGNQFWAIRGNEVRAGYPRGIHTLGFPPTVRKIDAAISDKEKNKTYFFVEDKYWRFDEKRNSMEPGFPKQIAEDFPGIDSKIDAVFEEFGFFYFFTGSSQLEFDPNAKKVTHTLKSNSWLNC

| Ki (stromelysin (HSLN); [1]) | Ki (matrilysin (Matr.)) | Ki (HFC) | Ki (stromelysin (HSLN)) | Ki (gelatinase A (HG72kD)) | Ki (Coll3) | Molecule |
| --- | --- | --- | --- | --- | --- | --- |
| 0.25 nM | 240 nM | 48 nM | – | – | – | CCOC(=O)CN1CCN(S(=O)(=O)c2ccc(Oc3ccc(Cl)cc3)cc2)[C@@H](C(=O)NO)C1 [Example 11(c), 2(R)-N-hydroxy-1-(4-(4-chlorophenoxy)benzenesulfonyl)-4-(ethoxycarbonylmethyl)-piperazine-2-carboxamide hydrochloride] |
| – | 70 nM | 12 nM | 0.51 nM | 0.202 nM | 0.074 nM | CC1(C)SCCN(S(=O)(=O)c2ccc(Oc3ccccn3)cc2)[C@H]1C(=O)NO [Example 18(b), 3(S)-N-hydroxy-4-(4-((pyrid-2-yl)oxy)benzenesulfonyl)-2,2-dimethyl-tetrahydro-2H-1,4-thiazine-3-carboxamide] |
| 4.4 nM | – | – | – | 0.077 nM | 0.088 nM | CC(=O)N1CCCN(S(=O)(=O)c2ccc(Oc3ccc(F)cc3)cc2)C1C(=O)NO (racemic) [Example 22, 2(R/S)-3-acetyl-1-4-(4-fluorophenoxy)benzenesulfonyl-N-hydroxy-hexahydropyrimidine-2-carboxamide] |
| 1 nM | 171 nM | 34 nM | – | 0.413 nM | 0.363 nM | O=C(NO)[C@H]1CNCCN1S(=O)(=O)c1ccc(Oc2ccc(Cl)cc2)cc1 [Example 10(a), 2(R)-N-hydroxy-1-(4-(4-chlorophenoxy)benzenesulfonyl)-piperazine-2-carboxamide hydrochloride] |
| 0.09 nM | 40 nM | 7 nM | – | 0.004 nM | 0.006 nM | Cn1cnc(S(=O)(=O)N2CCN(S(=O)(=O)c3ccc(Oc4ccc(Cl)cc4)cc3)[C@@H](C(=O)NO)C2)c1 [Example 12(d), 2 (R)-N-hydroxy-1-(4-(4-chlorophenoxy)benzenesulfonyl)-4-(1-methylimidazole-4-sulfonyl)-piperazine-2-carboxamide] |
| 0.06 nM | 0.7 nM | 1.4 nM | – | 0.0017 nM | 0.002 nM | 3(S)-4-(4-(4-(furan-3-yl)phenoxy)benzenesulfonyl-N-hydroxy-tetrahydro-2H-1,4-thiazine-3-carboxamide [Example 20] |
| 0.059 nM | – | 1.3 nM | – | 0.017 nM | 0.001 nM | CC1(C)SCCN(S(=O)(=O)c2ccc(Oc3ccc(Cl)cc3)cc2)[C@H]1C(=O)NO [Example 3(b), 3(S)-N-hydroxy4-(4-(4-chlorophenoxy)benzenesulfonyl)-2,2-dimethyl-tetrahydro-2H-1,4-thiazine-3-carboxamide] |
| 0.647 nM | 201 nM | – | – | 0.025 nM | 0.029 nM | O=C(NO)C1CSCCN1S(=O)(=O)c1ccc(Oc2ccccc2)cc1 (racemic) [Example 13(b), 3(R/S)-N-hydroxy-4-(4-phenoxybenzenesulfonyl)-tetrahydro-2H-1,4-thiazine-3-carboxamide] |
| 0.84 nM | – | 5.9 nM | – | 0.066 nM | 0.068 nM | CC1(C)NC(=O)CN(S(=O)(=O)c2ccc(Oc3ccc(F)cc3)cc2)C1C(=O)NO (racemic) [Example 21, 2(R/S)-1-[4-(4-fluorophenoxy)benzenesulfonyl]-3,3-dimethyl-N-hydroxy-5-oxo-piperazine-2-carboxamide] |
| 0.333 nM | 169 nM | – | – | 0.04 nM | – | O=C(NO)C1CSCCN1S(=O)(=O)c1ccc(Oc2ccc(Br)cc2)cc1 (racemic) [Example 13(a), 3(R/S)-N-hydroxy4-(4-bromophenoxybenzenesulfonyl)-tetrahydro-2H-1,4-thiazine-3-carboxamide] |
| 5.1 nM | 1840 nM | 187 nM | – | 0.152 nM | – | O=C1C[C@H](C(=O)NO)N(S(=O)(=O)c2ccc(Oc3ccc(F)cc3)cc2)CN1 [Example 15(b), 6(R)-(N-hydroxycarbamoyl)-1-(4-(4-fluorophenoxy)benzene-sulfonyl)-tetrahydropyrimidin-4-one] |
| 1.4 nM | – | 32 nM | – | 0.094 nM | 0.13 nM | CC1(C)[C@H](C(=O)NO)N(S(=O)(=O)c2ccc(Oc3ccncc3)cc2)CC[S@@+]1[O-] (single isomer, unassigned; isomer 1) [Example 19(a), 1(R), 3(S) isomer] |
| 2.3 nM | – | 31 nM | – | 0.49 nM | 0.16 nM | CC1(C)[C@H](C(=O)NO)N(S(=O)(=O)c2ccc(Oc3ccncc3)cc2)CC[S@+]1[O-] [Example 19(a), 1(S), 3(S) isomer, 1(S), 3(S)-N-hydroxy-4-(4-((pyrid-4-yl)oxy)benzenesulfonyl)-2,2-dimethyl-1-oxotetrahydro-2H-1,4-thiazine-3-carboxamide] |

| Molecule | Ki (stromelysin (HSLN); [1]) | Ki (matrilysin (Matr.)) | Ki (HFC) | Ki (stromelysin (HSLN)) | Ki (gelatinase A (HG72kD)) | Ki (Coll3) |
| --- | --- | --- | --- | --- | --- | --- |
| COc1ccc(Oc2ccc(S(=O)(=O)N3CCN(S(C)(=O)=O)CC3C(=O)NO)cc2)cc1 (racemic) [Example 12(c)] | 0.19 nM | 74 nM | 16 nM | – | – | – |
| O=C(NO)C1C[S+]([O-])CCN1S(=O)(=O)c1ccc(Oc2ccc(F)cc2)cc1 (racemic) [Example 14(b), 1(R/S),3(R/S)-N-hydroxy-1-oxo-4-(4-(4-fluorophenoxy)benzene-sulfonyl)-tetrahydro-2H-1,4-thiazine-3-carboxamide] | 0.79 nM | 306 nM | 28 nM | – | 0.034 nM | 0.016 nM |
| CN1CCN(S(=O)(=O)c2ccc(Oc3ccccc3)cc2)[C@@H](C(=O)NO)C1 [Example 11(b), 2(R)-N-hydroxy-1-(4-phenoxybenzenesulfonyl)-4-methyl-piperazine-2-carboxamide] | 6.3 nM | 2180 nM | – | – | 0.101 nM | 0.158 nM |
| CC(C)(C)OC(=O)N1CCN(S(=O)(=O)c2ccc(Oc3ccc(F)cc3)cc2)[C@@H](C(=O)NO)C1 [Example 9(b), 2(R)-N-hydroxy-1-(4-(4-fluorophenoxy)benzenesulfonyl)-4-(t-butoxycarbonyl)-piperazine-2-carboxamide] | 0.49 nM | 220 nM | 18 nM | – | 0.026 nM | – |
| CNC(=O)N1CCN(S(=O)(=O)c2ccc(Oc3ccc(Cl)cc3)cc2)C(C(=O)NO)C1 (racemic) [Example 6(a), 2(R/S)-N-hydroxy-1-(4-(4-chlorophenoxy)benzenesulfonyl)-4-(N-methylcarbamoyl)-piperazine-2-carboxamide] | 0.406 nM | 109 nM | – | – | 0.034 nM | 0.016 nM |
